Test results from US20210040111A1, “DRUGS TO TREAT OCULAR DISORDERS” (Graybug Vision, Inc., priority 2018, published 2021).
Converted amounts (≈) assume the structure as drawn. Like-named read-outs stand apart in the source and are kept apart here.

Assays:
[1] = Determination of prodrug solubility (50 mg/mL target, HPLC of supernatant); format: physicochemical; conditions: thermodynamic from solid
Description: For each test, approximately 5-10 mg was transferred to a 10 mL glass vial. Aqueous or organic solvent was added to each vial to achieve an overall concentration of 50 mg/mL. After vortexing aggressively for 2-3 minutes and sonicating in a bath sonicator for 5 minutes, undissolved drug was spun down at 1200×g for 5 minutes to generate a pellet. The supernatant was collected and filtered through a 0.2 μm nylon syringe filter into HPLC vials for drug content analysis. Drug concentration was determined by comparing against a standard calibration curve.

African green monkeys = conditions: monkey, in vivo
[2] = DMSO, organic solvent or mixture, read-out: Solubility DMSO
[3] = organic solvent or mixture, DCM (dichloromethane), read-out: Solubility DCM
[4] = water, read-out: Solubility Water

solubility [1, 2] [mg/mL]	solubility [1, 3] [mg/mL]	solubility [1, 4] [mg/mL]	SMILES	Ocular toxicity findings (African green monkeys)
> 100	> 50	< 0.1	CCOC(=O)[C@H](C)OC(=O)[C@H](C)OC(=O)[C@H](C)OC(=O)[C@H](C)OC(=O)[C@H](C)OC(=O)[C@H](C)OC(=O)c1cc(S(N)(=O)=O)c(Cl)cc1NCc1ccco1 [Compound 5, furosemide-ethyl-PLA (n=6)]	–
> 100	> 50	< 0.1	CCOC(=O)[C@H](C)OC(=O)[C@H](C)OC(=O)[C@H](C)OC(=O)[C@H](C)OC(=O)c1cc(S(N)(=O)=O)c(Cl)cc1NCc1ccco1 [Compd 1, furosemide-ethyl-PLA (n=4)]	–
> 100	> 50	< 0.1	CCCCNc1cc(C(=O)O[C@@H](C)C(=O)O[C@@H](C)C(=O)O[C@@H](C)C(=O)O[C@@H](C)C(=O)OCC)cc(S(N)(=O)=O)c1Oc1ccccc1 [Compound 2, bumetanide-ethyl-PLA (n=4)]	–

SMILES	solubility [1, 2] [mg/mL]	solubility [1, 3] [mg/mL]	solubility [1, 4] [mg/mL]	Ocular toxicity findings (African green monkeys)
CCCCNc1cc(C(=O)O)cc(S(N)(=O)=O)c1Oc1ccccc1 [Bumetanide, reference compound]	25 (≈ 68.6 mM)	25 (≈ 68.6 mM)	< 0.1	No ocular toxicity findings
